# Reference: patent publication US10137070B2 (Industry-Academic Cooperation Foundation, Yonsei University, priority 2016, dated 2018)
# Experiments:
# human skin fibroblasts = experiment: Procollagen type I C-peptide (PIP) secretion of UVB-irradiated human skin fibroblasts (EIA kit); assay type: cell-based; conditions: 100 μM each; UVB 20 mJ/cm^2; 24 hours culture; mean of three wells
# Experimental: Primary dermal fibroblasts (normal, human, neonatal, ATCC No. PCS-201-010) were purchased from ATCC (Manassas, Va., USA). The purchased cells were incubated in a 5% CO2 incubator at 37° C. by using a fibroblast growth medium (Promo Cell, Heidelberg) and used in experiments.
# To examine collagen biosynthesis ability, human fibroblasts were distributed into a 12 well-plate at a concentration of 1.0×10^6 cells/well, α-ionone and vitamin C were added thereto at a concentration of 100 μM each, and the resulting human fibroblasts were incubated in a CO2 incubator for 24 hours. After removing the medium from each well, the plate was washed once with PBS, and 1 ml of PBS was added thereto, followed by irradiation with ultraviolet B (UVB) at a dose of 20 mJ/cm^2. The PBS of each well was replaced by a medium and the human fibroblasts were cultured for 24 hours, and then the amount of procollagen secreted into the medium was measured using a procollagen type C-peptide EIA kit (Takara Bio, Japan). A standard solution included in the collagen measurement kit was diluted according to concentration, absorbance was measured at 450 nm to create a standard concentration curve, and the amount of collagen produced was calculated. […]
# [1] = Body weights and food intakes of hairless mice fed experimental diets; assay type: in vivo, albino hairless mice (Skh-1); conditions: 0.2% in AIN-93 diet for 10 weeks; UVB-irradiated hairless mice
# Excerpt: (§1) 5-week-old female albino hairless mice (Skh-1) used in the present example were purchased from ORIENTBIO (Gyeonggi-do, Korea) and subjected to an adaptation period of 1 week with solid feed. The experimental animal was divided into 4 groups and 5 mice were assigned to each group. All the experimental groups were divided into a normal control not irradiated with ultraviolet rays (−UVB), a group irradiated with ultraviolet rays (+UVB), and a group irradiated with ultraviolet rays and treated with α-ionone (αIO) or vitamin C (VitC). During a rearing period, the experimental groups were freely fed feed and water, temperature and humidity were maintained at 22±1° C. and 60±5%, a light period and a dark period were adjusted every day to 12 hours.
# (§2) The −UVB and +UVB groups were fed a purified diet formulated based on the AIN-93 rodent diet composition (Ree yes, P G et al., J Nutr, 123:1939-1951, 1993) for 10 weeks, the αIO group were fed an AIN-93 purified diet with 0.2% of α-ionone (Sigma-Aldrich) for 10 weeks, and the VitC group was fed a diet, prepared by adding 0.2% of vitamin C (Sigma-Aldrich) to the AIN-93 purified diet, for 10 weeks. The diets were supplied daily with water between 10 am and 11 am, and food intakes were measured daily.
# (§3) During the experimental rearing period, dorsal parts of the hairless mice were irradiated with UVB three times a week, and the amount of ultraviolet radiation was 73 mJ/cm^2 for the first one week, 146 mJ/cm^2 for the second week, and 219 mJ/cm^2 for the third week to the tenth week. During rearing, body weights and skin thicknesses of the experimental groups were measured weekly, and images of dorsal skin parts thereof were taken. The skin thicknesses of buttocks of the hairless mice were measured using a digital micro caliper (Marathon Watch Company Ltd, Ontario, Canada).
# [2] = system: skin tissues of ultraviolet rays-irradiated hairless mice; experiment: Skin moisture content, moisture evaporation, elasticity and erythema index of UVB-irradiated hairless mice (Corneometer, Tewameter, Cutometer, Mexameter); assay type: in vivo, albino hairless mice (Skh-1); conditions: 0.2% in diet for 10 weeks; UVB three times a week; last day
# Excerpt: as §1, §2, §3
# Skin moisture content, moisture evaporation, elasticity, and the erythema index of each of the experimental animal groups were measured once on the last day of the experiment using Corneometer®, Tewameter®, Cutometer®, and Mexameter® (Courage+Khazaka electronic GmbH), respectively. During the measurement, the value obtained by lightly pressing a certain portion of the experimental animal or the like was recorded.
# [3] = system: dorsal skin of ultraviolet rays-irradiated hairless mice; experiment: Wrinkle formation on dorsal skin of UVB-irradiated hairless mice (images, silicone replica, image analyzer); assay type: in vivo, albino hairless mice (Skh-1); conditions: 0.2% in diet for 10 weeks
# Excerpt: as §1, §2, §3
# The skin of each hairless mouse irradiated with ultraviolet rays for 10 weeks was replicated using silicone rubber and a degree of the formation of wrinkles was measured. A disk with a circular hole having a diameter of 1 cm was attached to a dorsal part of the hairless mouse, reagents for preparing a replica were mixed, the mixed resultant was thinly spread on the dorsal art of the hairless mouse and completely dried, and then the disk was carefully detached therefrom, thereby completing the preparation of the replica. The replica was prepared at a temperature of about 20° C. to about 23° C. and a humidity of about 45% to about 50% under constant temperature and constant humidity conditions, a silicon rubber impression material (Epigem, Seoul, Korea) for preparing a replica was used. To analyze the prepared replica, four wrinkle indexes, such as a total wrinkle area, a maximum wrinkle depth, a mean depth, and a mean length were analyzed using a computer image analyzer (Visioline VL650, Courage+Khazaka electronic GmbH, Germany).
# [4] = system: skin of UV-irradiated hairless mice; experiment: Skin thickness of UV-irradiated hairless mice (digital micro caliper); assay type: in vivo, albino hairless mice (Skh-1); conditions: last day, 0.2% in diet for 10 weeks
# Excerpt: as §1
# as §2, with “daily. […]” for “daily.”
# [5] = system: skin epidermis layer of UV-irradiated hairless mice; experiment: Skin epidermis layer thickness by H&E staining; assay type: in vivo, albino hairless mice (Skh-1); conditions: 0.2% in diet for 10 weeks; UVB for 10 weeks
# Excerpt: as §1
# as §2, with “daily. […]” for “daily.”
# [6] = system: collagen fibers in dermis layers of UV-irradiated hairless mice; experiment: Collagen fibers in dermis layer by Masson's trichrome staining; assay type: in vivo, albino hairless mice (Skh-1); conditions: 0.2% in diet for 10 weeks; UVB for 10 weeks
# Excerpt: as §1
# as §2, with “daily. […]” for “daily.”
# [7] = system: Collagen type I alpha1 (Col1α1); experiment: RT-PCR gene expression in dorsal skin tissue: Col1α1; assay type: in vivo, albino hairless mice (Skh-1); conditions: 0.2% in diet for 10 weeks
# Excerpt: as §1
# as §2, with “daily. […]” for “daily.”
# [8] = system: Collagen type I alpha2 (Col1α2); experiment: RT-PCR gene expression in dorsal skin tissue: Col1α2; assay type: in vivo, albino hairless mice (Skh-1); conditions: 0.2% in diet for 10 weeks
# Excerpt: as §1
# as §2, with “daily. […]” for “daily.”
# [9] = system: Collagen type III alpha1 (Col3α1); experiment: RT-PCR gene expression in dorsal skin tissue: Col3α1; assay type: in vivo, albino hairless mice (Skh-1); conditions: 0.2% in diet for 10 weeks
# Excerpt: as §1
# as §2, with “daily. […]” for “daily.”
# [10] = system: Matrix metallopeptidase 1a (MMP-1a); experiment: RT-PCR gene expression in dorsal skin tissue: MMP-1a; assay type: in vivo, albino hairless mice (Skh-1); conditions: 0.2% in diet for 10 weeks
# Excerpt: as §1
# as §2, with “daily. […]” for “daily.”
# [11] = system: Matrix metallopeptidase 1b (MMP-1b); experiment: RT-PCR gene expression in dorsal skin tissue: MMP-1b; assay type: in vivo, albino hairless mice (Skh-1); conditions: 0.2% in diet for 10 weeks
# Excerpt: as §1
# as §2, with “daily. […]” for “daily.”
# [12] = system: Matrix metallopeptidase 3 (MMP-3); experiment: RT-PCR gene expression in dorsal skin tissue: MMP-3; assay type: in vivo, albino hairless mice (Skh-1); conditions: 0.2% in diet for 10 weeks
# Excerpt: as §1
# as §2, with “daily. […]” for “daily.”
# [13] = system: Matrix metallopeptidase 9 (MMP-9); experiment: RT-PCR gene expression in dorsal skin tissue: MMP-9; assay type: in vivo, albino hairless mice (Skh-1); conditions: 0.2% in diet for 10 weeks
# Excerpt: as §1
# as §2, with “daily. […]” for “daily.”
# [14] = in vivo; cited from earlier work
# rats = conditions: 32 rats, orally 10 mg/day for 8 weeks; cited from earlier work
# [15] = system: microorganisms harmful to the human body; conditions: Findic et al 2009; cited from earlier work
# [16] = replica, computer image analyzer
compound,measurement,setting,value
"O=C1O[C@H]([C@@H](O)CO)C(O)=C1O [vitamin C, reference compound]",increase in the amount of collagen (procollagen type I C-peptide secreted) compared to control cells irradiated with ultraviolet rays alone (+UVB),human skin fibroblasts,37%
same,effect on body weights,[1],no significant effect
same,effect on food intakes,[1],no significant effect
"CC(=O)/C=C/C1C(C)=CCCC1(C)C (stereo not drawn) [α-ionone, (3E)-4-(2,6,6-trimethylcyclohex-2-en-1-yl)but-3-en-2-one]",increase in the amount of collagen (procollagen type I C-peptide secreted) compared to control cells irradiated with ultraviolet rays alone (+UVB),human skin fibroblasts,37%
same,effect on body weights,[1],no significant effect
same,effect on food intakes,[1],no significant effect
same,decrease in erythema index compared to the +UVB control,[2],26%
same,decrease in moisture evaporation compared to the +UVB control,[2],46%
same,increase in elasticity of skin tissue compared to the +UVB control,[2],77%
same,increase in moisture content of skin tissue compared to the +UVB control,[2],78%
same,degree of formation of wrinkles in silicone rubber replica compared to the +UVB control,[3]; UVB for 10 weeks,significant improvement on the thickness and depth of wrinkles
same,skin wrinkles in images of dorsal skin (naked eye) compared to the +UVB control,[3]; UVB for 10 weeks,significant decrease in the thickness and depth of wrinkles
same,decrease in maximum wrinkle depth compared to the +UVB control,[3]; [16],49%
same,decrease in mean depth of wrinkles compared to the +UVB control,[3]; [16],39%
same,decrease in mean length of wrinkles compared to the +UVB control,[3]; [16],68%
same,decrease in total wrinkle area compared to the +UVB control,[3]; [16],60%
same,decrease in skin thickness compared to the +UVB control,[4],19%
same,thickness of the thickened epidermis layer due to UV irradiation (H&E staining),[5],significant decrease
same,"collagen fibers of the dermis layer (Masson's trichrome, aniline blue) compared to the control irradiated alone",[6],relatively more compact and regularly arranged
same,expression of collagen type 1α1 compared to the +UVB control,[7],significant increase
same,expression of collagen type 1α2 compared to the +UVB control,[8],significant increase
same,expression of collagen type 3α1 compared to the +UVB control,[9],significant increase
same,expression of MMP-1a gene compared to the +UVB control,[10],significant decrease
same,expression of MMP-1b gene compared to the +UVB control,[11],significant decrease
same,expression of MMP-3 gene compared to the +UVB control,[12],significant decrease
same,expression of MMP-9 gene compared to the +UVB control,[13],significant decrease
ionone,LD50,[14],2 g/kg body weight
same,toxicity after oral administration,rats,no toxicity was shown
same,antimicrobial activity,[15],strong antimicrobial activity
